Data on 13 compounds can be found in PubChem BioAssay (NCI).

Values joined by “and” are separate entries in the source; they are usually repeats but may differ in a detail not shown here. Equal values may be shown once.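 Five compound concentrations were applied to cells in 96-well plates for 48 hours; endpoints were derived by simple linear interpolation of the resulting dose-response curve. GI50 marks 50% less growth. TGI marks complete inhibition of growth.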

Test systems include 786-0 renal; A549 NSCLC; HOP-62 NSCLC; OVCAR-5 ovarian; OVCAR-8 ovarian; RPMI-8226 leukemia; SNB-19 CNS; SR leukemia; U251 CNS; MCF7 breast.
Test in all cases: NCI tumour cell line growth inhibition, 48 h

For the compound `COC(=O)c1s/c(=N\C(=S)N(C)C)n(-c2ccc(Cl)cc2)c1C(=O)OC`, the TGI in the assay on 786-0 renal, in the assay on A549 NSCLC, in the assay with HOP-62 NSCLC, in the assay with OVCAR-5 ovarian, in the assay on OVCAR-8 ovarian and in the assay with RPMI-8226 leukemia was more than 100 µM in each case. The TGI in the assay on SNB-19 CNS, with SR leukemia and in the assay with U251 CNS was more than 100 µM throughout.

On to `O=C(Nc1ccc(Cl)c(C(F)(F)F)c1)c1ccc(NC2=C(Cl)C(=O)N(Cc3ccccc3)C2=O)cc1`, for which the GI50 was 16.2 µM in the assay on 786-0 renal; 17 µM with A549 NSCLC; 22.4 µM in the assay with HOP-62 NSCLC; 3.66 µM with OVCAR-8 ovarian; 2560 nM in the assay with RPMI-8226 leukemia; 29.2 µM with SNB-19 CNS. The GI50 with SR leukemia is 1650 nM; with U251 CNS it was 2.15 µM. In addition, the TGI with 786-0 renal is 32.9 µM; in the assay on A549 NSCLC, 34.8 µM; in the assay on HOP-62 NSCLC, 46.1 µM; with OVCAR-8 ovarian, more than 100 µM; with RPMI-8226 leukemia it was 6.58 µM; in the assay on SNB-19 CNS, more than 100 µM. The TGI with SR leukemia stood at 4.33 µM; in the assay on U251 CNS, 5.23 µM.

Turning to `COC(=O)c1cc2c(s1)-c1nccc3c1c(nc1ccccc13)C2=O`, the GI50 was more than 100 µM in the assay on 786-0 renal; more than 100 µM with A549 NSCLC; 65.4 µM in the assay on HOP-62 NSCLC; 26.1 µM in the assay with MCF7 breast; more than 100 µM in the assay with OVCAR-5 ovarian; 19.1 µM in the assay with OVCAR-8 ovarian. Moreover, the GI50 with SNB-19 CNS was more than 100 µM; with U251 CNS, 50.6 µM. Further, the TGI in the assay on 786-0 renal was more than 100 µM; in the assay with A549 NSCLC, more than 100 µM; in the assay on HOP-62 NSCLC, more than 100 µM; in the assay on MCF7 breast, more than 100 µM; with OVCAR-5 ovarian it was more than 100 µM; in the assay with OVCAR-8 ovarian it was 48.4 µM. In addition, the TGI with SNB-19 CNS and in the assay on U251 CNS was more than 100 µM in each case.

In the case of `Cc1ccc(S(=O)OCc2c(C)c(C)c(COS(=O)c3ccc(C)cc3)c(C)c2C)cc1` (configuration not stated), the TGI with 786-0 renal, with A549 NSCLC, in the assay on HOP-62 NSCLC, with OVCAR-5 ovarian, in the assay with OVCAR-8 ovarian and with RPMI-8226 leukemia was more than 100 µM throughout. For the same compound, the TGI with SNB-19 CNS, in the assay on SR leukemia and with U251 CNS was more than 100 µM each time.

On to `CCOC(=O)c1ccc(N=Nc2cc(C(=O)OCC)ccc2O)cc1`, for which the TGI in the assay on 786-0 renal, in the assay on A549 NSCLC, with HOP-62 NSCLC, in the assay on OVCAR-8 ovarian, in the assay on RPMI-8226 leukemia and with U251 CNS was more than 100 µM throughout.

Turning to `Oc1ccc2ccccc2c1N=Nc1ccc(Br)cc1`, the TGI in the assay on 786-0 renal, in the assay with A549 NSCLC, with HOP-62 NSCLC, in the assay on OVCAR-5 ovarian, in the assay on OVCAR-8 ovarian and in the assay on RPMI-8226 leukemia was more than 100 µM each time. The TGI in the assay on SNB-19 CNS, in the assay with SR leukemia and with U251 CNS was more than 100 µM in each case.

For `COc1ccc2c(c1)c[n+](C)c1c3cc(OC)c(OC)cc3ccc21`, the GI50 in the assay on 786-0 renal was 2.85 µM; in the assay on HOP-62 NSCLC, 4.63 µM; with OVCAR-5 ovarian, 1.52 µM and 11.8 µM. Further, the TGI is 15.9 µM in the assay on 786-0 renal; 10.3 µM in the assay on A549 NSCLC; 15.2 µM in the assay on HOP-62 NSCLC; 5.17 µM and 25 µM in the assay on OVCAR-5 ovarian; 4.61 µM and 6.34 µM with OVCAR-8 ovarian; 7.28 µM with RPMI-8226 leukemia. The TGI in the assay on SNB-19 CNS was 8.1 µM and 13.8 µM; with SR leukemia it was 13.2 µM; with U251 CNS it was 2.3 µM and 5.45 µM.

For `CSc1ccccc1C#C/C=C\C#Cc1ccccc1N`, the GI50 with 786-0 renal is 16.3 µM; in the assay on A549 NSCLC, 7.58 µM; in the assay on HOP-62 NSCLC, 5.39 µM; with OVCAR-5 ovarian, 19.4 µM; in the assay on OVCAR-8 ovarian, 35.8 µM; with RPMI-8226 leukemia it was 2720 nM. Besides, the GI50 is 22.2 µM in the assay with SNB-19 CNS and 10.3 µM in the assay on U251 CNS. The TGI in the assay with 786-0 renal is 42.6 µM; in the assay on A549 NSCLC it was 89.6 µM; with HOP-62 NSCLC, 26.3 µM; with OVCAR-5 ovarian, 50 µM; in the assay on OVCAR-8 ovarian, more than 100 µM; in the assay on RPMI-8226 leukemia, 12.7 µM. Also, the TGI is more than 100 µM in the assay on SNB-19 CNS and 55.3 µM in the assay on U251 CNS.

Turning to `CC(=O)N1CCC(=O)/C(=C/c2ccccc2)C1`, the TGI in the assay on 786-0 renal was 69.6 µM; with A549 NSCLC, more than 100 µM; in the assay with HOP-62 NSCLC it was more than 100 µM; with OVCAR-5 ovarian, more than 100 µM; in the assay on OVCAR-8 ovarian, 99.3 µM; in the assay with RPMI-8226 leukemia it was more than 100 µM. In addition, the TGI with SNB-19 CNS was more than 100 µM; in the assay with SR leukemia it was 72.5 µM; in the assay with U251 CNS, 34.3 µM.

With `C[Si](C)(C)/C(I)=C/CO`, the TGI with 786-0 renal is more than 100 µM; in the assay on A549 NSCLC, 76.3 µM; in the assay on OVCAR-5 ovarian, 69 µM; in the assay with OVCAR-8 ovarian, 86.5 µM; in the assay on RPMI-8226 leukemia, 40.7 µM; in the assay on SNB-19 CNS it was 64.7 µM. Further, the TGI with U251 CNS turned out to be 36.7 µM.

In the case of `Cn1cc(-c2csc(-c3c[nH]c4ccc(Br)cc34)n2)c2cnccc21`, the GI50 is 1.63 µM in the assay on 786-0 renal; 2.81 µM in the assay on A549 NSCLC; 3.17 µM with HOP-62 NSCLC; 1.77 µM in the assay on MCF7 breast; 2130 nM in the assay on RPMI-8226 leukemia; 3.67 µM with SNB-19 CNS. Also, the TGI was 3.4 µM in the assay on 786-0 renal; 11.5 µM with A549 NSCLC; 13.9 µM in the assay on HOP-62 NSCLC; 3.71 µM with MCF7 breast; 4.8 µM with RPMI-8226 leukemia; more than 100 µM in the assay with SNB-19 CNS.

Turning to `C=CCN1CCC23c4c5ccc(O)c4OC2C(=NN=C2CCC4(O)C6Cc7ccc(O)c8c7C4(CCN6CC=C)C2O8)CCC3(O)C1C5` (configuration not stated), the TGI with 786-0 renal is 35.3 µM; with A549 NSCLC it was 42.8 µM; in the assay with HOP-62 NSCLC it was 44 µM; in the assay with OVCAR-5 ovarian, more than 100 µM; in the assay on OVCAR-8 ovarian, 61.7 µM; in the assay with RPMI-8226 leukemia, more than 100 µM. The values for the TGI in the assay with SNB-19 CNS and with U251 CNS were more than 100 µM and 34.9 µM, respectively.

For the compound `COC(=O)C1=C(C(=O)OC)C2=S(SC3=C2CCCC3)S1` (configuration not stated), the TGI was 15.2 µM in the assay on 786-0 renal; more than 100 µM in the assay with A549 NSCLC; more than 100 µM in the assay on HOP-62 NSCLC; 93.6 µM in the assay with OVCAR-5 ovarian; 39.8 µM in the assay with OVCAR-8 ovarian; 30.1 µM with RPMI-8226 leukemia. Also, the TGI is more than 100 µM with SNB-19 CNS and 70.1 µM in the assay on U251 CNS.
